Data from PMC9718554, “Discovery of a fragment hit compound targeting D-Ala:D-Ala ligase of bacterial peptidoglycan biosynthesis” (Journal of Enzyme Inhibition and Medicinal Chemistry, 2022).
Where two headings read alike, the source gives them in different places. Residues, ends and D or L forms follow the SMILES beside them.

Target: T1, E. coli DdlB enzyme (D-alanine:D-alanine ligase) (Escherichia coli, UniProt P07862)
T1 construct: made in house; host or cells: E. coli
Experiment: biochemical
Settings: for remaining activity at 2500 µM: tested concentration 2.5 mM; for remaining activity at 500 µM: at 0.5 mM; for remaining activity at 2400 µM: tested concentration 2.4 mM; for remaining activity at 2200 µM: tested concentration 2.2 mM; for remaining activity at 2300 µM: tested concentration 2.3 mM; for remaining activity at 1800 µM: tested concentration 1.8 mM; for remaining activity at 1900 µM: tested concentration 1.9 mM; for remaining activity at 1700 µM: tested concentration 1.7 mM; for remaining activity at 2100 µM: tested concentration 2.1 mM; for remaining activity at 2000 µM: tested concentration 2.0 mM; for remaining activity at 2800 µM: tested concentration 2.8 mM; for remaining activity at 2600 µM: tested concentration 2.6 mM

[1] = residual activity of DdlB, fragment library screening, read-out: DdlB RA
[2] = read-out: DdlB inhibition, RA (Residual Activity)
[3] = residual activity, read-out: DdlB RA
[4] = fragment library screening, read-out: DdlB RA

Cc1ccc(S(=O)(=O)NC2CC2)c(C)c1 [Compound Y206-5066]
remaining activity at 2700 µM (tested concentration 2.7 mM, read-out: DdlB RA): 94%

Cc1cc(C)nc(NC#N)n1 [FLD119]
remaining activity at 2500 µM [1]: 100%

O=C(c1ccc(O)cc1)c1ccc(O)cc1 [FLD093]
remaining activity at 2500 µM [1]: 97%

Cc1ccc(-c2ccnc3c(C(=O)O)cnn23)cc1C [Compound 11, 7–(3,4-Dimethylphenyl)pyrazolo[1,5-a]pyrimidine-3-carboxylic acid]
remaining activity at 500 µM [2]: 100%

Cc1ccc(C#N)c(SCC(=O)O)n1 [Compound 8009-7785]
remaining activity at 2400 µM (read-out: DdlB RA): 82%

CCc1c(C)[nH]c(=O)c(C(=O)O)c1C(N)=O [Compound 8020-6319]
remaining activity at 2200 µM [3]: 72%

O=S(=O)(O)CCOc1ccccc1 [Compound 0165-0458]
remaining activity at 2500 µM (read-out: DdlB RA): 100%

CC(c1c[nH]c2ccccc12)C(O)C(=O)O (stereo not drawn) [Compound 8019-4518]
remaining activity at 2300 µM [3]: 100%

c1ccc2c(c1)CCNC2 [FLD166]
remaining activity at 2500 µM [1]: 77%

O=C(O)C1CCCCC1C(=O)NCc1ccc(F)cc1 (stereo not drawn) [Compound Y204-1009]
remaining activity at 1800 µM (read-out: DdlB RA): 95%

Cc1cc(C(=O)O)n2nc(C)c(Cl)c2n1 [Compound Y504-8761]
remaining activity at 2200 µM [3]: 98%

Cc1n[nH]c([C@@H]2CC(F)(F)CN2C2CCCCCC2)n1 [SB35-1022]
remaining activity at 1900 µM [3]: 97%

NS(=O)(=O)c1ccc(CNC(=O)C2CCCC2)cc1 [Compound Y207-3980]
remaining activity at 1800 µM (read-out: DdlB RA): 93%

O=C(Cc1n[nH]c(-c2cccnc2)n1)NCC1CCCO1 (stereo not drawn) [Compound 8019-9738]
remaining activity at 1700 µM [3]: 94%

CC1(C)CC(=O)CC(C)(C)N1OC(=O)c1ccccn1 [Compound 8012-5220]
remaining activity at 2200 µM [3]: 97%

CCCn1c(C)cnc1C1CCNC1 (stereo not drawn) [Compound T158-0004]
remaining activity at 2300 µM (read-out: DdlB RA): 86%

CC1=NCCS1 [FLD187]
remaining activity at 2500 µM [1]: 100%

COc1c(C)[nH]ccc1=O [FLD135]
remaining activity at 2500 µM [1]: 96%

O=C1N[C@@H](c2ccccc2)CO1 [FLD127]
remaining activity at 2500 µM [1]: 99%

N#Cc1ccc(O)cc1F [Compound 00CS-0032]
remaining activity at 3600 µM (residual activity of DdlB, fragment library screening, tested concentration 3.6 mM, read-out: DdlB RA): 94%

Cc1ccc(O)c(CCc2ccc(O)cc2)n1 [Compound 1733-0143]
remaining activity at 2100 µM (read-out: DdlB RA): 90%

O=C1CC2CS(=O)(=O)CC2N1C1CCCCC1 (stereo not drawn) [Compound 8013-3540]
remaining activity at 2100 µM (read-out: DdlB RA): 82%

Cc1nc(CCOC2CCCNC2)no1 (stereo not drawn) [SC04-0106]
remaining activity at 2400 µM (read-out: DdlB RA): 95%

O=C(O)COCC(=O)Nc1ccc(-c2nn[nH]n2)cc1 [Compound D047-0107]
remaining activity at 1800 µM [4]: 93%

COc1nonc1O [Compound 8019-4549]
remaining activity at 4300 µM (tested concentration 4.3 mM, read-out: DdlB RA): 93%

CNc1nnc(C(F)(F)F)s1 [FLD140]
remaining activity at 2500 µM [1]: 94%

CCOC(=O)c1cnn2c(-c3ccc(C)c(C)c3)ccnc12 [Compound 20, Ethyl 7–(3,4-dimethylphenyl)pyrazolo[1,5-a]pyrimidine-3-carboxylate]
remaining activity at 500 µM [2]: 100%

O=S(=O)(c1c[nH]c2ncccc12)N1CCc2ccccc21 [Compound P633-0115]
remaining activity at 1700 µM (read-out: DdlB RA): 83%

NCC(=O)N[C@@H](Cc1ccc(O)cc1)C(=O)O [Compound Y043-8421] (H-Gly-Tyr-OH)
remaining activity at 2100 µM (read-out: DdlB RA): 95%

CCC(C)(C)NC(=O)C1CC(=O)N(c2ccccc2)C1 (stereo not drawn) [Compound Y031-3748]
remaining activity at 2200 µM [3]: 101%

CC(=O)N1CCC(O)C2CCCCC21 (stereo not drawn) [Compound 8014-2178]
remaining activity at 2500 µM (read-out: DdlB RA): 99%

Cc1c(Br)c(C(=O)O)nn1C [Compound Y501-6296]
remaining activity at 2300 µM [3]: 107%

COc1cc(N)ccn1 [FLD120]
remaining activity at 2500 µM [1]: 97%

CCCC(C)C(=O)Nc1ccc(S(N)(=O)=O)cc1 (stereo not drawn) [Compound Y030-4922]
remaining activity at 1800 µM (read-out: DdlB RA): 77%

O=C(O)CCCC(=O)N1CCN(c2ccccc2)CC1 [Compound Y204-6418]
remaining activity at 1800 µM [4]: 99%

CC1CCN(C(=O)C2N(C(C)C)C(=O)C23CCCC3)CC1 (stereo not drawn) [Compound T964-0245]
remaining activity at 2100 µM [3]: 95%

O=C1CC(c2cccc(O)c2)c2snc(C(=O)O)c2N1 (stereo not drawn) [Compound 8020-5288]
remaining activity at 1700 µM [3]: 114%

CCCCC(=O)Nc1ccc(S(N)(=O)=O)cc1 [Compound Y030-9753]
remaining activity at 2000 µM (read-out: DdlB RA): 96%

CSc1nc(N)n[nH]1 [FLD128]
remaining activity at 2500 µM [1]: 97%

CCOC(=O)N1CCNCC1 [FLD191]
remaining activity at 2500 µM [1]: 100%

CCc1nc(N2CCOCC2)ncc1C(=O)O [Compound S272-0074]
remaining activity at 2500 µM (read-out: DdlB RA): 91%

O=C(O)CC1C(=O)NCCN1C1Cc2ccccc2C1 (stereo not drawn) [Compound D236-0050]
remaining activity at 2000 µM [3]: 103%

CC1(C)CC(O)(c2cc(C(=O)O)no2)CCO1 (stereo not drawn) [Compound 8019-4352]
remaining activity at 2500 µM (read-out: DdlB RA): 72%

CC(C)(C)OC(=O)n1c(B(O)O)cc2ccccc21 [Compound 8018-6383]
remaining activity at 1900 µM (read-out: DdlB RA): 75%

O=C(O)c1cc(CO)on1 [Compound 8018-8667]
remaining activity at 3500 µM (tested concentration 3.5 mM, read-out: DdlB RA): 99%

COc1nc(Cl)nc(OC)n1 [FLD049]
remaining activity at 2500 µM [1]: 95%

Cc1noc(-c2cccnc2Cl)n1 [Compound 8018-8637]
remaining activity at 2800 µM (read-out: DdlB RA): 96%

CCOC(=O)Cc1ccccn1 [FLD164]
remaining activity at 2500 µM [1]: 97%

Cc1ccc(C2(O)CC(C)N(C)CC2C)cc1 (stereo not drawn) [Compound 8007-1141]
remaining activity at 2600 µM (read-out: DdlB RA): 94%

O=C(NCc1cc[nH]n1)[C@H]1CC=CC[C@H]1C(=O)O [Compound Y504-7917]
remaining activity at 2000 µM [4]: 88%

OCCn1cc(Br)cn1 [Compound Y504-8814]
remaining activity at 2900 µM (tested concentration 2.9 mM, read-out: DdlB RA): 97%

O=C(O)c1ccc(N2Cc3ccccc3C2=O)cc1 [Compound Y042-2866]
remaining activity at 2000 µM [4]: 82%

Cc1ccc(C)c(S(=O)(=O)O)c1 [FLD115]
remaining activity at 2500 µM [1]: 94%

CCNC(=O)N1CCCN(C)c2ccccc21 [Compound T599-3176]
remaining activity at 2400 µM (read-out: DdlB RA): 96%

CCc1nc(NCc2ccncc2)ncc1C(=O)O [Compound S272-1779]
remaining activity at 1900 µM [4]: 93%

Nc1c(Br)cc(Br)cc1C(=O)O [FLD132]
remaining activity at 2500 µM [1]: 100%

O=C(O)c1ccccc1NCCc1ccc(Cl)cc1 [Compound 8524-6914]
remaining activity at 1800 µM [3]: 105%

Nc1ncnc2[nH]c(N3CCOCC3)nc12 [Compound 8001-0336]
remaining activity at 2300 µM [3]: 98%

C=CCN1C(=O)NOC(N)=C1C#N [Compound 8017-4055]
remaining activity at 2800 µM (read-out: DdlB RA): 92%

O=C1NC(C(=O)O)Cn2cccc21 (stereo not drawn) [Compound S531-0139]
remaining activity at 2800 µM (read-out: DdlB RA): 90%

C=CCn1c(N2CCC(C(=O)O)CC2)nc2ccccc21 [Compound D264-0028]
remaining activity at 1800 µM [4]: 86%

Cc1cc(-c2ccc(Cl)cc2)nc2cc(C(=O)O)nn12 [Compound D717-0161]
remaining activity at 1700 µM [4]: 88%

CC(C)(C)C(N)Cn1cccn1 (stereo not drawn) [Compound 8014-1588]
remaining activity at 2100 µM [1]: 99%

CCC(=O)N1CCC(c2nc(C3CCOCC3)no2)C1 (stereo not drawn) [Compound S428-0464]
remaining activity at 2100 µM [3]: 95%

O=c1c(O)c(N2CCCCCC2)c1=O [Compound G317-0465]
remaining activity at 2600 µM (read-out: DdlB RA): 92%

Nc1ccc2c(c1)[C@@H](O)C[C@@H](C(F)(F)F)O2 [Compound 8018-8746]
remaining activity at 2600 µM (read-out: DdlB RA): 98%

Cc1nn(C)cc1-c1ccnc2c(C(=O)O)cnn12 [Compound 17, 7–(1,3-Dimethyl-1H-pyrazol-4-yl)pyrazolo[1,5-a]pyrimidine-3-carboxylic acid]
DdlB dose-response curve shape: Nonsigmoidal curve
remaining activity at 5000 µM (at 5 mM, read-out: DdlB inhibition, RA (Residual Activity)): 26%

O=c1c(O)c(NC2CC2)c1=O [Compound G317-0511]
remaining activity at 3300 µM (tested concentration 3.3 mM, read-out: DdlB RA): 90%

O=C(NCc1ccccc1)C1(F)CCNC1 (stereo not drawn) [SA94-0001]
remaining activity at 1900 µM (read-out: DdlB RA): 97%

N#Cc1cncc(Br)c1 [FLD123]
remaining activity at 2500 µM [1]: 97%

O=C(O)C(Cc1ccccc1)Nc1ncccn1 (stereo not drawn) [Compound Y042-3157]
remaining activity at 2100 µM (read-out: DdlB RA): 90%

COC(=O)c1ccc(S(=O)(=O)O)o1 [Compound 4055-0046]
remaining activity at 2400 µM (read-out: DdlB RA): 102%

O=C(O)c1ncoc1-c1ccc2c(c1)OCCO2 [Compound 8020-3638]
remaining activity at 2000 µM [3]: 62%

Cc1cc(N)ccn1 [FLD090]
remaining activity at 2500 µM [1]: 100%

CC(O)C1CCN(Cc2ccncc2)CC1 (stereo not drawn) [Compound T786-0016]
remaining activity at 2300 µM (read-out: DdlB RA): 65%

Brc1ccccn1 [FLD169]
remaining activity at 2500 µM [1]: 100%

NCCCN1CCCC1=O [FF01-3614]
remaining activity at 4200 µM (residual activity of DdlB, fragment library screening, tested concentration 4.2 mM, read-out: DdlB RA): 90%

C#CC(=O)NC(C)c1c(C)nn(C)c1C (stereo not drawn) [Compound T001-1381]
remaining activity at 2400 µM (read-out: DdlB RA): 87%

Cc1ccccc1C(=O)N1CCCN(C)c2ccccc21 [Compound T599-3543]
remaining activity at 1800 µM [3]: 72%

Oc1cccc2[nH]ccc12 [FLD010]
remaining activity at 2500 µM [1]: 100%

O=C(O)Cc1n[nH]c(-c2ccncc2)n1 [Compound 8019-7883]
remaining activity at 2500 µM (read-out: DdlB RA): 97%

Cc1ccc(S(N)(=O)=O)cc1C(=O)NCC(C)C [Compound Y050-1744]
remaining activity at 1800 µM (read-out: DdlB RA): 83%

O=C(O)c1ccc2cc(O)ccc2c1 [FLD068]
remaining activity at 2500 µM [1]: 94%
